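A five-concentration, 48-hour dose response in 96-well plates underlies each endpoint, interpolated linearly between surrounding concentrations. TGI: total growth inhibition.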
Legend:
Assay in all cases: inhibition of tumour cell growth, NCI panel, 48 h
[1] = test system: OVCAR-5 ovarian
[2] = test system: CCRF-CEM leukemia
[3] = test system: HOP-18 NSCLC
[4] = test system: A498 renal
[5] = test system: OVCAR-8 ovarian
[6] = test system: UACC-62 melanoma
[7] = test system: NCI-H460 lung
[8] = test system: XF 498 CNS
[9] = test system: NCI-H522 lung
[10] = test system: HCC-2998 colon
[11] = test system: U251 CNS
[12] = test system: RPMI-8226 leukemia
[13] = test system: OVCAR-3 ovarian
[14] = test system: CAKI-1 renal
[15] = test system: M19-MEL melanoma
[16] = test system: SF-295 CNS
[17] = test system: SF-268 CNS
[18] = test system: HL-60(TB) leukemia
[19] = test system: COLO 205 colon
[20] = test system: SNB-78 CNS
[21] = test system: 786-0 renal
[22] = test system: LXFL 529 NSCLC
[23] = test system: NCI-H226 lung
[24] = test system: SK-MEL-5 melanoma
[25] = test system: EKVX NSCLC
[26] = test system: DLD-1 colon
[27] = test system: UACC-257 melanoma
[28] = test system: MOLT-4 leukemia
[29] = test system: HCT-116 colon
[30] = test system: K-562 leukemia
[31] = test system: IGROV1 ovarian
[32] = test system: HOP-62 NSCLC
[33] = test system: KM20L2 colon
[34] = test system: KM12 colon
[35] = test system: SNB-19 CNS
[36] = test system: SK-OV-3 ovarian
[37] = test system: M14 melanoma
[38] = test system: TK-10 renal
[39] = test system: LOX IMVI melanoma
[40] = test system: UO-31 renal
[41] = test system: HT29 colon
[42] = test system: HCT-15 colon
[43] = test system: HOP-92 NSCLC
[44] = test system: SF-539 CNS
[45] = test system: A549 NSCLC
[46] = test system: SN12C renal
[47] = test system: NCI-H23 lung
[48] = test system: MALME-3M melanoma
[49] = test system: SW-620 colon
[50] = test system: ACHN renal
[51] = test system: DMS 273 small cell lung
[52] = test system: SK-MEL-2 melanoma
[53] = test system: DMS 114 small cell lung
[54] = test system: SK-MEL-28 melanoma
[55] = test system: SNB-75 CNS
[56] = test system: OVCAR-4 ovarian
[57] = test system: SR leukemia
[58] = test system: RXF 393 renal

## O/N=C(\C(=N/O)Nc1ccc(-c2ccc(NC(=N/O)/C(=N\O)c3ccccc3)cc2)cc1)c1ccccc1
[1]
  TGI: 27.5 µM
[2]
  TGI: 46.3 µM
[3]
  TGI: 37.3 µM
[4]
  TGI: 51 µM
[5]
  TGI: 45 µM
[6]
  TGI: 35.4 µM
[7]
  TGI: 32.4 µM
[8]
  TGI: 41.3 µM
[9]
  TGI: 33.3 µM
[10]
  TGI: 18.7 µM
[11]
  TGI: 60.9 µM
[12]
  TGI: 57.9 µM
[13]
  TGI: 40.2 µM
[14]
  TGI: 62.9 µM
[15]
  TGI: 31.4 µM
[16]
  TGI: 37.4 µM
[17]
  TGI: 69.2 µM
[18]
  TGI: 55.6 µM
[19]
  TGI: 30.4 µM
[20]
  TGI: 97.4 µM
[21]
  TGI: 41.4 µM
[22]
  TGI: 32.2 µM
[23]
  TGI: 69.2 µM
[24]
  TGI: 34.8 µM
[25]
  TGI: 57.9 µM
[26]
  TGI: 53.8 µM
[27]
  TGI: 80.6 µM
[28]
  TGI: 41.3 µM
[29]
  TGI: 34.6 µM
[30]
  TGI: 44 µM
[31]
  TGI: 57.6 µM
[32]
  TGI: 30.1 µM
[33]
  TGI: 36.5 µM
[34]
  TGI: 33.6 µM
[35]
  TGI: 50.7 µM
[36]
  TGI: 33.8 µM
[37]
  TGI: 32.8 µM
[38]
  TGI: 82.4 µM
[39]
  TGI: 29.1 µM
[40]
  TGI: 82.9 µM
[41]
  TGI: 29.2 µM
[42]
  TGI: 70 µM
[43]
  TGI: 58.1 µM
[44]
  TGI: 35.3 µM
[45]
  TGI: 79.1 µM
[46]
  TGI: 97.3 µM
[47]
  TGI: 32.1 µM
[48]
  TGI: 44.7 µM
[49]
  TGI: 49.8 µM
[50]
  TGI: 97.2 µM
[51]
  TGI: 36.3 µM
[52]
  TGI: 36.3 µM

## O=C1Cc2ccccc2N1/N=C\c1ccc([N+](=O)[O-])cc1
[1]
  TGI: > 100 µM
[2]
  TGI: > 100 µM
[3]
  TGI: > 100 µM
[53]
  TGI: > 100 µM
[4]
  TGI: > 100 µM
[5]
  TGI: > 100 µM
[6]
  TGI: > 100 µM
[7]
  TGI: > 100 µM
[8]
  TGI: > 100 µM
[10]
  TGI: > 100 µM
[11]
  TGI: > 100 µM
[12]
  TGI: > 100 µM
[13]
  TGI: > 100 µM
[14]
  TGI: > 100 µM
[15]
  TGI: > 100 µM
[16]
  TGI: > 100 µM
[17]
  TGI: > 100 µM
[18]
  TGI: > 100 µM
[54]
  TGI: > 100 µM
[19]
  TGI: > 100 µM
[20]
  TGI: > 100 µM
[21]
  TGI: > 100 µM
[23]
  TGI: > 100 µM
[24]
  TGI: > 100 µM
[25]
  TGI: > 100 µM
[26]
  TGI: > 100 µM
[27]
  TGI: > 100 µM
[28]
  TGI: > 100 µM
[29]
  TGI: > 100 µM
[30]
  TGI: > 100 µM
[31]
  TGI: > 100 µM
[32]
  TGI: > 100 µM
[33]
  TGI: > 100 µM
[34]
  TGI: > 100 µM
[55]
  TGI: > 100 µM
[35]
  TGI: > 100 µM
[36]
  TGI: > 100 µM
[37]
  TGI: > 100 µM
[38]
  TGI: > 100 µM
[39]
  TGI: > 100 µM
[40]
  TGI: > 100 µM
[41]
  TGI: > 100 µM
[42]
  TGI: > 100 µM
[43]
  TGI: > 100 µM
[44]
  TGI: > 100 µM
[45]
  TGI: > 100 µM
[56]
  TGI: > 100 µM
[47]
  TGI: > 100 µM
[48]
  TGI: > 100 µM
[49]
  TGI: > 100 µM
[50]
  TGI: > 100 µM
[51]
  TGI: > 100 µM
[52]
  TGI: > 100 µM

## COc1ccc2c3ccc4c(c3n(C)c2c1)C(=O)C=CC4=O
[2]
  TGI: 49.9 µM
[3]
  TGI: > 100 µM
[4]
  TGI: > 100 µM
[5]
  TGI: 33.2 µM
[6]
  TGI: > 100 µM
[8]
  TGI: 52.5 µM
[57]
  TGI: 22.2 µM
[9]
  TGI: 22.4 µM
[10]
  TGI: > 100 µM
[11]
  TGI: > 100 µM
[12]
  TGI: 48.4 µM
[15]
  TGI: 46.2 µM
[16]
  TGI: > 100 µM
[17]
  TGI: > 100 µM
[18]
  TGI: 19.8 µM
[54]
  TGI: > 100 µM
[19]
  TGI: > 100 µM
[20]
  TGI: > 100 µM
[21]
  TGI: 32.9 µM
[22]
  TGI: 28.6 µM
[23]
  TGI: > 100 µM
[24]
  TGI: > 100 µM
[25]
  TGI: > 100 µM
[26]
  TGI: 30.2 µM
[27]
  TGI: > 100 µM
[28]
  TGI: 13.6 µM
[58]
  TGI: 37.5 µM
[29]
  TGI: 48.4 µM
[30]
  TGI: 26.6 µM
[31]
  TGI: > 100 µM
[32]
  TGI: > 100 µM
[33]
  TGI: > 100 µM
[55]
  TGI: > 100 µM
[35]
  TGI: > 100 µM
[36]
  TGI: > 100 µM
[37]
  TGI: > 100 µM
[40]
  TGI: 90.3 µM
[41]
  TGI: > 100 µM
[42]
  TGI: > 100 µM
[43]
  TGI: 32.3 µM
[44]
  TGI: 52.8 µM
[45]
  TGI: > 100 µM
[46]
  TGI: > 100 µM
[56]
  TGI: 92.5 µM
[47]
  TGI: > 100 µM
[48]
  TGI: > 100 µM
[49]
  TGI: 30.6 µM
[50]
  TGI: 59.6 µM
[51]
  TGI: > 100 µM

Reference: PubChem BioAssay (NCI)
